Like-named read-outs stand apart in the source and are kept apart here.
Assays:
[1] = Rate of superoxide radical trapping by competitive trapping versus DEPMPO (EPR); conditions: based on kDEPMPO=58 M^−1 s^−1
Procedure: The nitrone 5-carbamoyl-5-methyl-1-pyrroline N-oxide (AMPO) was successfully synthesized and characterized. […] Resulting spin adducts for each of these radicals gave unique spectral profiles. […] Theoretical analyses using density functional theory calculations at the B3LYP/6-31=G**/B3LYP6-31G* level were performed on AMPO and its corresponding suproxide product. Calculations predicted the presence of intramolecular H-bonding in both AMPO and its superoxide adduct, and these interactions were further confirmed by an X-ray structure (in the case of AMPO) of a novel and the amido nitrone compound 2-amino-5-carbamoyl-5-methyl-1-pyrroline N-oxide (NH2-AMPO).
(§1) Trapping of O2^•−. Typical O2^•− trapping experiments utilized the riboflavin-light system as described in the Kinetics section. An alternative O2^•− generating system used a solution of 0.4 mM xanthine and 0.5 unit/mL xanthine oxidase, or 10 nM PMA and 8×10^5 neutrophil cells in 25 mM AMPO. Spectra were acquired over a period of 15 min.

[2] = Decay kinetics of nitrone-superoxide adducts (EPR, riboflavin-light system); type: physicochemical; conditions: pH 7.2 and 23° C.; this work
Procedure: Decay Kinetics In a typical decay kinetic study, 50 μL solution containing 25 mM of the nitrone and 100 μM riboflavin was irradiated for 3 min in the cavity. […] All data were the average of 3 or more measurements.

[3] = Partition coefficient n-octanol/water (buffer); type: physicochemical; conditions: for Kp (n-octanol/water): pH 7.2, shaken for 2 hrs at 37° C.
[4] = Spin trapping of radicals detected by EPR spectroscopy; conditions: hydroxyl, superoxide, C-centered, sulfite, and tert-butoxyl radicals
Procedure: Miscellaneous Spin Trapping Studies Fenton reaction system. A 50 μL 0.1 M phosphate buffer solution containing 30 mM AMPO, 1% H2O2 and 65 mM FeSO4 was transferred to a 50 μL capillary tube and EPR spectrum of the hydroxyl adduct was recorded over 5 min time period.
Trapping of SO3^•−, CO2^•− and CH3.CHOH radicals. 50 μL 0.1 M phosphate buffer solution containing 30 mM AMPO, 1% H2O2 and 100 mM of the respective radical source NaHCO2, Na2SO3, or ethanol with 65 mM freshly prepared FeSO4. The mixture was then transferred to 50 μL capillary tube and EPR spectrum of the adduct was recorded over a 5 min time period.
Trapping of GS. and t-BuO. radicals. 50 μL 0.1 M phosphate buffer solution containing 30 mM AMPO and 100 mM GSSG or (CH3)3CO—OC(CH3)3. The mixture was then transferred to 50 μL capillary tube and the radicals were generated by UV photolysis. EPR spectrum of the adduct was recorded over a 5 min time period.
as §1

[5] = pH 7.2 and 23° C.; literature reference; cited from earlier work
[6] = value of the competitor DEPMPO used as basis of the calculation; cited from earlier work

Row | Structure (SMILES) | Rate of superoxide radical trapping (k) [1] | kl /10^−4s^−1 (first order decay of nitrone-superoxide adduct) [2] | partition coefficient in an n-octanol/buffer system (comparison in words) ([3]; n-octanol/buffer system) | Kp (n-octanol/water) [3] | Spin trapping of radicals by EPR [4] | kl /10^−4s^−1 (first order decay of nitrone-superoxide adduct) [5] | t1/2/min, first order approximation half-life of nitrone-superoxide adduct [5] | Rate of superoxide radical trapping (k), reference value [6]
1 | CC1(C(N)=O)CCC=[N+]1[O-] (stereo not shown) [AMPO, 5-carbamoyl-5-methyl-1-pyrroline N-oxide] | 38 M⁻¹ s⁻¹ | 14.0 ± 1.2 10^−4s^−1 | comparable value to those of DMPO and DEPMPO | 0.03 | has been demonstrated |  |  | 
2 | CCOC(=O)C1(C)CCC=[N+]1[O-] (stereo not shown) [EMPO, 5-ethoxycarbonyl-5-methyl-1-pyrroline N-oxide] | 44 M⁻¹ s⁻¹ | 11.6 ± 0.5 10^−4s^−1 |  | 0.33 |  |  |  | 
3 | CC1(C)CCC=[N+]1[O-] [DMPO] |  |  |  | 0.06 |  | 129.0 10^−4s^−1 | 0.9 min | 
4 | CCOP(=O)(OCC)C1(C)CCC=[N+]1[O-] (stereo not shown) [DEPMPO, 5-diethoxyphosphoryl-5-methyl-1-pyrroline N-oxide] |  | 7.5 ± 0.7 10^−4s^−1 |  | 0.16 |  | 8.13 10^−4s^−1 | 14.2 min | 58 M⁻¹ s⁻¹

Reference: US7598400B2, “AMPO spin traps” (The Ohio State University Research Foundation, priority 2004, dated 2009)
